Results published in patent US20230357239A1, “PYRIDO[2,3-D]PYRIMIDIN-4-AMINES AS SOS1 INHIBITORS” (Bayer Aktiengesellschaft, priority 2020, published 2023).
pIC50: −log10 of the molar value.

Each molecule was assayed against human SOS1 (SOS1) with human K-RasG12C (Homo sapiens (Human), UniProt Q07889) (assay: hK-RasG12C interaction assay with hSOS1 (HTRF)). Details: GST-hK-RasG12C and His-hSOS1, 60 min incubation at 20° C, mean, read-out: K-RasG12C - SOS interaction assay IC50 - [mol/l] (mean).
Format: binding
Description: Biochemical Assay: hK-RasG12C Interaction Assay with hSOS1
This assay quantifies the equilibrium interaction of human SOS1 (SOS1) with human K-Ras^G12C (K-RasG12C). Detection of the interaction is achieved by measuring homogenous time-resolved fluorescence resonance energy transfer (HTRF) from antiGST-Europium (FRET donor) bound to GST-K-RasG12C to anti-6His-XL665 bound to His-tagged hSOS1 (FRET-acceptor).
The assay buffer containes 5 mM HEPES pH 7.4 (Applichem), 150 mM NaCl (Sigma), 10 mM EDTA (Promega), 1 mM DTT (Thermofisher), 0.05% BSA Fraction V, pH 7.0, (ICN Biomedicals), 0.0025% (v/v) Igepal (Sigma) and 100 mM KF (FLUKA).
Concentrations of protein batches used are optimized to be within the linear range of the HTRF signal. A Ras working solution is prepared in assay buffer containing typically 10 nM GST-hK-RasG12C and 2 nM antiGST-Eu(K) (Cisbio, France). A SOS1 working solution is prepared in assay buffer containing typically 20 nM His-hSOS1 and 10 nM anti-6His-XL665 (Cisbio, France). An inhibitor control solution is prepared in assay buffer containing 10 nM anti-6His-XL665 without SOS1.
Fifty nl of a 100-fold concentrated solution of the test compound in DMSO are transferred into a black microtiter test plate (384 or 1536, Greiner Bio-One, Germany).
For this, either a Hummingbird liquid handler (Digilab, MA, USA) or an Echo acoustic system (Labcyte, CA, USA) is used.
All steps of the assay are performed at 20° C. A volume of 2.5 μl of the Ras working solution is added to all wells of the test plate using a Multidrop dispenser (Thermo Labsystems). After 2 min preincubation, 2.5 μl of the SOS1 working solution are added to all wells except for those wells at the side of the test plate that are subsequently filled with 2.5 μl of the inhibitor control solution. After 60 min incubation the fluorescence is measured with a Pherastar (BMG, Germany) using the HTRF module (excitation 337 nm, emission 1: 620 nm, emission 2: 665 nm).
The ratiometric data (emission 2 divided by emission 1) are normalized using the controls (DMSO=0% inhibition, inhibition control wells with inhibitor control solution=100% inhibition). […] IC50 values are calculated by 4-Parameter fitting using a commercial software package (Genedata Screener, Switzerland).

Chain of human SOS1 (SOS1) with human K-RasG12C (Q07889 564-1049): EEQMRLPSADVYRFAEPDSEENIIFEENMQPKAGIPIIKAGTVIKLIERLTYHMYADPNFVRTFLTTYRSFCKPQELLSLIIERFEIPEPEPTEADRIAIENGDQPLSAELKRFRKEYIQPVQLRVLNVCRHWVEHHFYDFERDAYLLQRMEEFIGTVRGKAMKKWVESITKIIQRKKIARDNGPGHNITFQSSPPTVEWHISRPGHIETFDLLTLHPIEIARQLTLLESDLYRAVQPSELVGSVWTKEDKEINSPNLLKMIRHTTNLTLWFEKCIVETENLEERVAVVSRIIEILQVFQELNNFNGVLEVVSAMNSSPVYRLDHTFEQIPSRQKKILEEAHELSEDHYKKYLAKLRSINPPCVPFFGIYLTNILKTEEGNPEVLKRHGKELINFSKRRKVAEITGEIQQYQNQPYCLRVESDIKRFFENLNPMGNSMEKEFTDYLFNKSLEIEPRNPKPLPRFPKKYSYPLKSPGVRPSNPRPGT

**Q.** `CC(=O)N1CC=C(c2cnc3nc(C)nc(N[C@H](C)c4cccc(C(F)F)c4F)c3c2)CC1` [Example 43, 1-{4-[4-({(1R)-1-[3-(difluoromethyl)-2-fluorophenyl]ethyl}amino)-2-methylpyrido[2,3-d]pyrimidin-6-yl]-3,6-dihydropyridin-1(2H)-yl}ethan-1-one] was tested. Which pIC50 did it give?
**A.** 8.28

**Q.** With `CC(=O)N1CC2(C1)CN(c1cc3c(N[C@H](C)c4cccc(C(F)(F)F)c4C)nc(C)nc3nc1C)C2` [Example 63, 1-{6-[2,7-dimethyl-4-({(1R)-1-[2-methyl-3-(trifluoromethyl)phenyl]ethyl}amino)pyrido[2,3-d]pyrimidin-6-yl]-2,6-diazaspiro[3.3]heptan-2-yl}ethan-1-one] as the molecule, how does the pIC50 read?
**A.** 8.06

**Q.** How did the pIC50 turn out when `CC(=O)N1CCN(c2cnc3nc(C)nc(N[C@H](C)c4cccc(C(F)(F)F)c4C)c3c2)CC1` [Example 35, 1-{4-[2-methyl-4-({(1R)-1-[2-methyl-3-(trifluoromethyl)phenyl]ethyl}amino)pyrido[2,3-d]pyrimidin-6-yl]piperazin-1-yl}ethan-1-one] was run?
**A.** 8.11

**Q.** With `COc1nc2nc(C)nc(N[C@H](C)c3cccc(C(F)(F)F)c3C)c2cc1C1CCN(C(C)=O)CC1` [Example 22, 1-{4-[7-methoxy-2-methyl-4-({(1R)-1-[2-methyl-3-(trifluoromethyl)phenyl]ethyl}amino)pyrido[2,3-d]pyrimidin-6-yl]piperidin-1-yl}ethan-1-one] as the molecule, how does the pIC50 read?
**A.** 6.09

**Q.** How did the pIC50 turn out when `CC(=O)N1CCN(c2cc3c(N[C@H](C)c4cccc(C(F)(F)F)c4C)nc(C)nc3nc2C)CC1` [Example 19, 1-{4-[2,7-dimethyl-4-({(1R)-1-[2-methyl-3-(trifluoromethyl)phenyl]ethyl}amino)pyrido[2,3-d]pyrimidin-6-yl]piperazin-1-yl}ethan-1-one] was run?
**A.** 8.08

**Q.** How did the pIC50 turn out when `Cc1nc(N[C@H](C)c2cccc(C(F)(F)C(C)(C)O)c2F)c2cc(N3CCN(C)CC3)cnc2n1` [Example 52, 1,1-difluoro-1-{2-fluoro-3-[(1R)-1-{[2-methyl-6-(4-methylpiperazin-1-yl)pyrido[2,3-d]pyrimidin-4-yl]amino}ethyl]phenyl}-2-methylpropan-2-ol] was run?
**A.** 8.35

**Q.** `CC(=O)N1CC=C(c2cnc3nc(C)nc(N[C@H](C)c4cccc(C(F)(F)F)c4C)c3c2)CC1` [Example 26, 1-{4-[2-methyl-4-({(1R)-1-[2-methyl-3-(trifluoromethyl)phenyl]ethyl}amino)pyrido[2,3-d]pyrimidin-6-yl]-3,6-dihydropyridin-1(2H)-yl}ethan-1-one hydrogen] was tested. Which pIC50 did it give?
**A.** 8.24

**Q.** With `CC(=O)N1CC=C(c2cnc3nc(C)nc(N[C@H](C)c4cccc(C(F)(F)F)c4C)c3c2)CC1` [Example 25, 1-{4-[2-methyl-4-({(1R)-1-[2-methyl-3-(trifluoromethyl)phenyl]ethyl}amino)pyrido[2,3-d]pyrimidin-6-yl]-3,6-dihydropyridin-1(2H)-yl}ethan-1-one] as the molecule, how does the pIC50 read?
**A.** 8.24

**Q.** `CC(=O)N[C@@H]1CCN(c2cnc3nc(C)nc(N[C@H](C)c4cccc(C(F)(F)F)c4C)c3c2)C1` [Example 16, N-{(3R)-1-[2-methyl-4-({(1R)-1-[2-methyl-3-(trifluoromethyl)phenyl]ethyl}amino)pyrido[2,3-d]pyrimidin-6-yl]pyrrolidin-3-yl}acetamide] was tested. Which pIC50 did it give?
**A.** 7.76

**Q.** With `CC(=O)N1C2CC1CN(c1cnc3nc(C)nc(N[C@H](C)c4cccc(C(F)(F)C(C)(C)O)c4F)c3c1)C2` [Example 49, 1-{3-[4-({(1R)-1-[3-(1,1-difluoro-2-hydroxy-2-methylpropyl)-2-fluorophenyl]ethyl}amino)-2-methylpyrido[2,3-d]pyrimidin-6-yl]-3,6-diazabicyclo[3.1.1]heptan-6-yl}ethan-1-one] as the molecule, how does the pIC50 read?
**A.** 8.48

**Q.** With `CC(=O)N1CC2(C1)CN(c1cnc3nc(C)nc(N[C@H](C)c4cccc(C(F)(F)F)c4C)c3c1)C2` [Example 8, 1-{6-[2-methyl-4-({(1R)-1-[2-methyl-3-(trifluoromethyl)phenyl]ethyl}amino)pyrido[2,3-d]pyrimidin-6-yl]-2,6-diazaspiro[3.3]heptan-2-yl}ethan-1-one] as the molecule, how does the pIC50 read?
**A.** 7.80

**Q.** With `CC(=O)N1CCC(c2cnc3nc(C)nc(N[C@H](C)c4cccc(C(F)(F)C(C)(C)O)c4F)c3c2)CC1` [Example 47, 1-{4-[4-({(1R)-1-[3-(1,1-difluoro-2-hydroxy-2-methylpropyl)-2-fluorophenyl]ethyl}amino)-2-methylpyrido[2,3-d]pyrimidin-6-yl]piperidin-1-yl}ethan-1-one] as the molecule, how does the pIC50 read?
**A.** 8.40

**Q.** `CC(=O)N[C@@H]1CCN(c2cnc3ncnc(N[C@H](C)c4cccc(C(F)(F)F)c4)c3c2)C1` [Example 2, N-{(3R)-1-[4-({(1R)-1-[3-(trifluoromethyl)phenyl]ethyl}amino)pyrido[2,3-d]pyrimidin-6-yl]pyrrolidin-3-yl}acetamide] was tested. Which pIC50 did it give?
**A.** 7.47

**Q.** With `CC(=O)N1CC=C(c2cnc3ncnc(N[C@H](C)c4cccc(C(F)(F)F)c4)c3c2)CC1` [Example 5, 1-{4-[4-({(1R)-1-[3-(trifluoromethyl)phenyl]ethyl}amino)pyrido[2,3-d]pyrimidin-6-yl]-3,6-dihydropyridin-1(2H)-yl}ethan-1-one] as the molecule, how does the pIC50 read?
**A.** 8.37

**Q.** `CC(=O)N1CC=C(c2cc3c(N[C@H](C)c4cccc(C(F)(F)F)c4C)nc(C)nc3nc2C(F)(F)F)CC1` [Example 41, 1-{4-[2-methyl-4-({(1R)-1-[2-methyl-3-(trifluoromethyl)phenyl]ethyl}amino)-7-(trifluoromethyl)pyrido[2,3-d]pyrimidin-6-yl]-3,6-dihydropyridin-1(2H)-yl}ethan-1-one] was tested. Which pIC50 did it give?
**A.** 7.64

**Q.** How did the pIC50 turn out when `CC(=O)N1CC=C(c2cnc3ncnc(N[C@H](C)c4cccc(C(F)(F)F)c4C)c3c2)CC1` [Example 12, 1-{4-[4-({(1R)-1-[2-methyl-3-(trifluoromethyl)phenyl]ethyl}amino)pyrido[2,3-d]pyrimidin-6-yl]-3,6-dihydropyridin-1(2H)-yl}ethan-1-one] was run?
**A.** 8.39

**Q.** `C[C@@H](Nc1ncnc2ncc(N3CCN(C)CC3)cc12)c1cccc(C(F)(F)F)c1` [Example 3, 6-(4-methylpiperazin-1-yl)—N-{(1R)-1-[3-(trifluoromethyl)phenyl]ethyl}pyrido[2,3-d]pyrimidin-4-amine] was tested. Which pIC50 did it give?
**A.** 7.86

**Q.** `Cc1nc(N[C@H](C)c2cccc(C(F)(F)F)c2C)c2cc(N3CC4(CN(C(=O)OC(C)(C)C)C4)C3)cnc2n1` [Example 7, tert-butyl 6-[2-methyl-4-({(1R)-1-[2-methyl-3-(trifluoromethyl)phenyl]ethyl}amino)pyrido[2,3-d]pyrimidin-6-yl]-2,6-diazaspiro[3.3]heptane-2-carboxylate] was tested. Which pIC50 did it give?
**A.** 6.74

**Q.** `CC(=O)N1CC(c2cnc3nc(C)nc(N[C@H](C)c4cccc(C(F)(F)F)c4C)c3c2)C1` [Example 40, 1-{3-[2-methyl-4-({(1R)-1-[2-methyl-3-(trifluoromethyl)phenyl]ethyl}amino)pyrido[2,3-d]pyrimidin-6-yl]azetidin-1-yl}ethan-1-one] was tested. Which pIC50 did it give?
**A.** 7.79

**Q.** How did the pIC50 turn out when `Cc1nc(N[C@H](C)c2cccc(C(F)(F)C(C)(C)O)c2F)c2cc(N3CCCS3(=O)=O)c(C)nc2n1` [Example 59, 2-[4-({(1R)-1-[3-(1,1-difluoro-2-hydroxy-2-methylpropyl)-2-fluorophenyl]ethyl}amino)-2,7-dimethylpyrido[2,3-d]pyrimidin-6-yl]-1 lambda^6,2-thiazolidine-1,1-dione] was run?
**A.** 8.14

**Q.** `Cc1nc(N[C@H](C)c2cccc(C(F)(F)F)c2C)c2cc(N3CCCS3(=O)=O)cnc2n1` [Example 34, 2-[2-methyl-4-({(1R)-1-[2-methyl-3-(trifluoromethyl)phenyl]ethyl}amino)pyrido[2,3-d]pyrimidin-6-yl]-1 lambda^6,2-thiazolidine-1,1-dione] was tested. Which pIC50 did it give?
**A.** 7.89

**Q.** How did the pIC50 turn out when `Cc1nc(N[C@H](C)c2cccc(C(F)(F)F)c2C)c2cc(N3CCCS3(=O)=O)c(C)nc2n1` [Example 58, 2-[2,7-dimethyl-4-({(1R)-1-[2-methyl-3-(trifluoromethyl)phenyl]ethyl}amino)pyrido[2,3-d]pyrimidin-6-yl]-1 lambda^6,2-thiazolidine-1,1-dione] was run?
**A.** 7.80

**Q.** How did the pIC50 turn out when `CC(=O)N[C@@H]1CCN(c2cnc3ncnc(N[C@H](C)c4cccc(C(F)(F)F)c4C)c3c2)C1` [Example 11, N-{(3R)-1-[4-({(1R)-1-[2-methyl-3-(trifluoromethyl)phenyl]ethyl}amino)pyrido[2,3-d]pyrimidin-6-yl]pyrrolidin-3-yl}acetamide] was run?
**A.** 7.75
